The record followed here is paper PMC11388281, “Prevotella are major contributors of sialidases in the human vaginal microbiome” (Proceedings of the National Academy of Sciences of the …, 2024).

Holding throughout (assay): fluorescence sialidase assay with 4-MU-Neu5Ac
What all share (format): biochemical

One test concerns the target T1, PbNanH (Prevotella bivia, UniProt I4ZBT3).
T1 construct: gene PrebiDRAFT_2006; full-length gene in pET28a, N-terminal His6 tag, E. coli BL21(DE3)
Conditions: 100 µM 4-MU-Neu5Ac, 5 nM enzyme, sodium acetate pH 5.5, 37 °C. The text has this: fluorescence sialidase assay with 4-MU-Neu5Ac on PbNanH | All enzymes were inhibited by the well-characterized, broad-spectrum sialidase inhibitor, Neu5ac2en

The target of the next test is T2, PtNanH1 (Hoylesella timonensis, UniProt D1VY87).
T2 construct: gene HMPREF9019_1088; full-length gene in pET28a, N-terminal His6 tag, E. coli BL21(DE3); 413 amino acids incl. predicted signal peptide

The next test deals with T3, GvNanH3 (Gardnerella vaginalis, UniProt S4HLQ0).
T3 construct: full-length gene in pET28a, N-terminal His6 tag, E. coli BL21(DE3)
The text has this:
fluorescence sialidase assay with 4-MU-Neu5Ac on GvNanH3 | All enzymes were inhibited by the well-characterized, broad-spectrum sialidase inhibitor, Neu5ac2en

A further test deals with T4, PtNanH2 (Hoylesella timonensis, UniProt D1VWZ8).
T4 construct: gene HMPREF9019_0332; full-length gene in pET28a, N-terminal His6 tag, E. coli BL21(DE3); 1,030 amino acids incl. predicted signal peptide

In another test the target is T5, PdNanH (Prevotella denticola, UniProt F0H7U2).
T5 construct: gene HMPREF9303_0049; full-length gene in pET28a, N-terminal His6 tag, E. coli BL21(DE3); predicted signal peptide
Conditions: 100 µM 4-MU-Neu5Ac, 5 nM enzyme, sodium acetate pH 5.5, 37 °C. The text has this: fluorescence sialidase assay with 4-MU-Neu5Ac on PdNanH | All enzymes were inhibited by the well-characterized, broad-spectrum sialidase inhibitor, Neu5ac2en

`CC(=O)N[C@H]1[C@H]([C@H](O)[C@H](O)CO)OC(C(=O)O)=C[C@@H]1O` [Neu5Ac2en]: the IC50 against PbNanH came to 103 ± 20.3 µM; on PtNanH1, 180 ± 92.3 µM; against GvNanH3, 29 ± 5.6 µM; at PtNanH2 it was 56 ± 23 µM; on PdNanH, 50.5 ± 22.5 µM.
Take `CC(=O)N[C@H]1[C@H]([C@H](O)[C@H](O)CO)OC(C(=O)O)=C[C@@H]1N=C(N)N` [Zanamivir]: on PtNanH2, the IC50 stood at 33.6 ± 15.5 µM.

As a reminder, the IC50 is the concentration at which inhibition is half-maximal. A high value points to weaker potency.
